Measurements as given in the supplement of paper PMC10307832.

What was measured:
Experiment in all cases: relative viability (nuclei count vs DMSO), 5 days (fraction); higher = more cells survive
[1] = compound: CCN1C(=O)C2=CC(=C(N=C2N(C1=O)C3CC3)N)C(=O)N + CC(=O)Nc1cccc(-n2c(=O)n(C3CC3)c(=O)c3c(Nc4ccc(I)cc4F)n(C)c(=O)c(C)c32)c1 [Trametinib] (partner 0.02 µM)
In short: (§1)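 Nuclei were stained with Hoechst during a one-step fixation (final 0.05% Triton X-100, 1% formaldehyde, 1 ug/ml Hoechst) carried out 5 days after dosing, then counted on 4× images. The cells, lung cancer lines in 1536-well plates, had been dosed by pin tool the day after seeding with one drug alone or a fixed anchor-drug dose plus five library-drug doses (not always all listed) in √10 steps. Relative viability is the nuclei count in treated wells divided by that in vehicle wells, and each value is the median of duplicate plates.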

[2] = compound: CCN1C(=O)C2=CC(=C(N=C2N(C1=O)C3CC3)N)C(=O)N + CS(=O)(=O)N1CCN(Cc2cc3nc(-c4cccc5[nH]ncc45)nc(N4CCOCC4)c3s2)CC1 [Pictilisib] (partner 1 µM)
In short: as §1

[3] = compound: CCN1C(=O)C2=CC(=C(N=C2N(C1=O)C3CC3)N)C(=O)N + C[C@@H](Oc1cc(-c2cnn(C3CCNCC3)c2)cnc1N)c1c(Cl)ccc(F)c1Cl [Crizotinib] (partner 1 µM)
In short: as §1

[4] = compound: CCN1C(=O)C2=CC(=C(N=C2N(C1=O)C3CC3)N)C(=O)N + NC(=O)Nc1cc(-c2cccc(F)c2)sc1C(=O)N[C@H]1CCCNC1 [AZD7762] (partner 0.2 µM)
In short: as §1

[5] = compound: CCN1C(=O)C2=CC(=C(N=C2N(C1=O)C3CC3)N)C(=O)N + O=C(c1cc(Cc2n[nH]c(=O)c3ccccc23)ccc1F)N1CCN(C(=O)C2CC2)CC1 [Olaparib] (partner 8 µM)
In short: as §1

Row | Cell Line | relative viability ([1]; first compound 0.253 µM) | relative viability ([1]; first compound 0.8 µM) | relative viability ([1]; first compound 2.53 µM) | relative viability ([1]; first compound 8 µM) | relative viability ([2]; first compound 0.253 µM) | relative viability ([2]; first compound 0.8 µM) | relative viability ([2]; first compound 2.53 µM) | relative viability ([2]; first compound 8 µM) | relative viability ([3]; first compound 0.253 µM) | relative viability ([3]; first compound 0.8 µM) | relative viability ([3]; first compound 2.53 µM) | relative viability ([3]; first compound 8 µM) | relative viability ([4]; first compound 0.253 µM) | relative viability ([4]; first compound 0.8 µM) | relative viability ([4]; first compound 2.53 µM) | relative viability ([4]; first compound 8 µM) | relative viability ([5]; first compound 0.253 µM) | relative viability ([5]; first compound 0.8 µM) | relative viability ([5]; first compound 2.53 µM) | relative viability ([5]; first compound 8 µM)
1 | HCC-44 | 1.18 | 0.975 | 1.06 | 1.04 | 0.599 | 0.6 | 0.564 | 0.641 | 0.844 | 0.826 | 0.772 | 0.851 | 1.03 | 0.993 | 0.977 | 0.991 | 0.982 | 0.976 | 0.999 | 0.975
2 | NCI-H23 | 0.385 | 0.416 | 0.365 | 0.391 | 0.453 | 0.447 | 0.473 | 0.487 | 0.387 | 0.561 | 0.396 | 0.532 | 0.272 | 0.208 | 0.284 | 0.2 | 0.325 | 0.292 | 0.336 | 0.332
3 | NCI-H838 | 0.55 | 0.573 | 0.511 | 0.474 | 0.468 | 0.41 | 0.437 | 0.503 | 0.868 | 0.817 | 0.74 | 0.717 | 0.908 | 0.951 | 0.961 | 0.908 | 0.737 | 0.764 | 0.746 | 0.722
4 | NCI-H1355 | 0.429 | 0.387 | 0.383 | 0.438 | 0.324 | 0.513 | 0.419 | 0.505 | 1.12 | 1.05 | 1.02 | 1.1 | 0.798 | 0.821 | 0.756 | 0.691 | 0.8 | 0.702 | 0.759 | 0.721
5 | NCI-H1944 | 0.451 | 0.445 | 0.353 | 0.427 | 0.354 | 0.354 | 0.342 | 0.308 | 1.06 | 1.12 | 1.01 | 1.3 | 0.541 | 0.479 | 0.528 | 0.487 | 0.4 | 0.411 | 0.374 | 0.437
6 | NCI-H2087 | 0.228 | 0.184 | 0.217 | 0.193 | 0.785 | 0.788 | 0.878 | 0.857 | 0.809 | 0.937 | 0.627 | 0.872 | 1.35 | 1.32 | 1.36 | 1.28 | 0.638 | 0.82 | 0.643 | 0.585
7 | PC-14 | 0.743 | 0.721 | 0.768 | 0.715 | 0.73 | 0.58 | 0.758 | 0.879 | 0.973 | 0.939 | 0.845 | 0.941 | 0.397 | 0.288 | 0.513 | 0.294 | 0.196 | 0.26 | 0.306 | 0.308
8 | LC-2-ad | 0.918 | 0.865 | 0.845 | 0.871 | 0.465 | 0.409 | 0.514 | 0.506 | 0.217 | 0.433 | 0.437 | 0.537 | 0.866 | 0.771 | 0.853 | 0.834 | 0.803 | 0.892 | 0.736 | 0.772
